# In patent US20120232025A1, “SAFENER DRUG COMBINATIONS FOR USE WITH NMDA […]” (priority 2010, published 2012):
# Read-outs that look alike come from different tables or passages of the source.
# How the values were obtained:
# [1] = tested on: neurotoxic side effects of MK-801 or phencyclidine; details: cited from earlier work
# [2] = tested on: psychotomimetic effects; details: cited from earlier work
# [3] = tested on: depressive symptoms; details: cited from earlier work
# [4] = tested on: neurotoxic side effects of MK-801 or phencyclidine; assay: safener protection against neurotoxic side effects (vacuole formation) of NMDA antagonists; format: in vivo, rat
# [5] = tested on: cerebrocortical neurons; assay: vacuole formation / neurotoxic damage in rat brain after NMDA antagonist administration; details: for vacuole-forming ED100 dosage: intraperitoneal injection, aging female rats, vacuole response in 100% of animals; for potency relative to MK-801 (from ED100 numbers): vacuole formation / NMDA receptor blocker ranking, fraction of MK-801 potency
# From the text: First, that dosage is based on intraperitoneal injection. […] This is a simple, quick, and convenient mode of injection, and it is widely used in research. If desired, intravenous injection in rats can be performed by using the tail vein, but that is slower, more tedious, more difficult, and more prone to experimental error.
# This runs contrary to most types of drug tests on rats, in which females tend to be avoided, because of potentially uncontrolled variables created by reproductive hormones. Most female rats that have been used, in tests done to date, are retired breeders, with ages of about 7 months or more.
# For convenience, to avoid having to use subscript fonts or notations, terms such as […] also can be written as ED-100, or simply as […].
# Whenever a term such as ED100 is being used, it requires an understanding of any essential factors that should be known by any researchers who might try to perform similar tests. In this situation, researchers would need to know the route of administration (intraperitoneal injection), and the types of animals used to determine the ED100 level (i.e., aging female rats).
# [6] = tested on: neuropathic pain; assay: animal models of neuropathic pain; format: in vivo
# [7] = tested on: neuropathic pain; details: cited from earlier work
# [8] = tested on: cerebrocortical neurons; details: rats, persistent administration of the NMDA antagonist; cited from earlier work
# [9] = tested on: neuropathic pain; details: cited from earlier work; remark: listed apart in the source
# [10] = tested on: excitotoxic neurodegeneration; assay: standard animal models of excitotoxic neurodegeneration; format: in vivo; details: only at very high doses that cause severe functional and behavioral disturbances
# From the text: However, it may well be that such concerns, by the Applicants, are not especially serious or acute, in view of the relatively low dosages of memantine that are actually being administered to Alzheimer patients. The Applicants have tested memantine, in animals, to measure and quantify its ability to protect against excitotoxic neurodegeneration, using several standard animal models that are used to test and measure excitotoxic neurodegeneration. […] Therefore, it is very unlikely that memantine is being administered, to Alzheimer patients, at dosages that are actually high enough to prevent excitotoxic neurodegeneration, since the dosages being used in human patients are not causing the types of observable functional disturbances that have been seen when anti-excitotoxic dosages are administered.
# [11] = tested on: Alzheimer's disease; details: cited from earlier work
# [12] = as an anesthetic; cited from earlier work
structure (smiles),measurement,setting,value
CN1CCN(C2=Nc3cc(F)ccc3Cc3ccccc32)CC1 [fluperlapine],reduction of toxic side effects of MK-801 and PCP,[1]; tests on rats,reduce the toxic side effects
N=C(N)N/N=C/c1c(Cl)cccc1Cl [guanabenz],neurotoxic effects of NMDA antagonists in animals,[1],suppressed or prevented
same,psychotomimetic effects of NMDA antagonists in humans,[2],suppressed or prevented
Nc1nc2ccc(OC(F)(F)F)cc2s1 [riluzole],benefit in major depression,[3]; Zarate et al 2004,beneficial
O=C(CCCN1CCC(O)(c2ccc(Cl)cc2)CC1)c1ccc(F)cc1 [haloperidol],safening potency compared with sigma-selective drugs,[1]; required substantially higher dosages,not as potent or effective
same,prevention of NMDA antagonist-induced vacuole formation,"[4]; test animals, given at the same time as the NMDA antagonist, clinically relevant dosages",could not prevent
c1ccc(C2(N3CCCCC3)CCCCC2)cc1 [phencyclidine],vacuole-forming ED100 dosage,[5],4.0 mg/kg
same,potency relative to MK-801 (from ED100 numbers),[5],about 1/10
CN(C)CCC=C1c2ccccc2CCc2ccccc21 [amitriptyline],neuropathic pain-relieving activity,"[6]; animal models, administered by itself",neuropathic pain-relieving activity
same,effect on neuropathic pain-relieving activity of memantine,[6]; coadministered with memantine,potentiated
same,safening activity against neurotoxic side effects of MK-801,"[4]; coadministered with MK-801, unpublished experiments",substantial safening activity
OC(CCN1CCCC1)(c1ccccc1)C1CCCCC1 (stereo not shown) [procyclidine],relief for neuropathic pain,"[7]; animal models, reported in journals",offers relief for neuropathic pain
Clc1cccc(Cl)c1N=C1NCCN1 [clonidine],effect on MK-801's neuropathic pain-relieving activity,[7]; administered together with MK-801,potentiates
same,neuropathic pain relieving activity,[7]; alone,neuropathic pain relieving activity
same,neurotoxic effects of NMDA antagonists in animals,[1],suppressed or prevented
same,psychotomimetic effects of NMDA antagonists in humans,[2],suppressed or prevented
[N-]=[N+]=O [nitrous oxide],time after which irreversible changes inside animal brains begin to manifest,[8],about 8 hours
Nc1nnc(-c2cccc(Cl)c2Cl)c(N)n1 [lamotrigine],neurotoxic effects of NMDA antagonists in animals,[1],suppressed or prevented
same,psychotomimetic effects of NMDA antagonists in humans,[2],suppressed or prevented
CNC1(c2ccccc2Cl)CCCCC1=O (racemic) [ketamine],relief from depressive symptoms,"[3]; intravenous infusion for 40 minutes, small group (Berman et al 2000)",transient but significant relief
same,relief from depressive symptoms,"[3]; prolonged subanesthetic intravenous infusion up to 4 days, 2 patients (Correll et al 2005)",rapid and lasting relief
same,time to relief from depressive symptoms after infusion,"[3]; single 40 minute intravenous infusion, treatment resistant depression (Zarate et al 2006b)",less than 2 hours
same,duration of remission of symptoms,"[3]; single 40 minute intravenous infusion, significant number of patients (Zarate et al 2006b)",up to a week
same,potency relative to phencyclidine (from ED100 numbers),[5]; fraction of phencyclidine potency,about 1/10
same,vacuole-forming ED100 dosage,[5],40 mg/kg
same,potency relative to MK-801 (from ED100 numbers),[5],about 1/100
same,side effects,"[9]; continuous subcutaneous infusion, one patient (Backonja et al 1994)",intolerable cognitive and memory side effects
same,side effects,"[9]; single-dosage injections, six patients (Backonja et al 1994)",mild and well tolerated
same,side effects,[9]; subcutaneous injections over 7 days and nights (Eide et al 1995),intolerable side effects
CC12CC3CC(C)(C1)CC(N)(C3)C2 [memantine],protection against excitotoxic damage,[10],some level of protection against excitotoxic damage
same,further deterioration of cognitive function,[11]; Alzheimer patients,did not prevent further deterioration
same,global assessment of cognition and ability to manage daily activities,"[11]; low dose, middle-stage Alzheimer patients",transient and slight improvements
same,improvement in depressive symptoms,"[3]; 20 mg/day, 8 weeks, severe chronic depression (Zarate et al 2006a)",no signs of improvement
CN[C@]1(c2ccccc2Cl)CCCCC1=O [S-ketamine],anesthetic potency relative to R-ketamine,[12],about twice as potent
